From PubChem BioAssay AID1963870 (Molecular Pharmacology Branch, DTP, NCI, 2024) come the findings set out here.

The test has as its system 292921-168-R-J2-PDC KRAS tumor spheroid viability. The experiment in a line: Anticancer human tumor 292921-168-R-J2-PDC patient-derived pancreatic carcinoma cell line growth inhibition [KRAS2]. As to conditions: spheroids with HUVEC and MSC; for viability, T/C: stronger effect = lower value. Summed up:
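KRAS-mutant tumor cells were grown as spheroids with HUVEC endothelial cells and human MSCs as stroma. Targeted agents were tested alone and with KRAS pathway inhibitors. Doses started at or near clinical Cmax, or 10 microM, descending half-log.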

The mark [1] stands for this setting: curve of first compound, second compound 0.1 µM.
Setting [2] is: curve of first compound, second compound 0.316 µM.
[3] abbreviates: curve of first compound, second compound 1 µM.
Setting [4] is: curve of first compound, second compound 3.16 µM.
The mark [5] stands for this setting: curve of first compound, second compound 10 µM.
Setting [6] is: second compound 0.1 µM, first compound 0.0316 µM.
The mark [7] stands for this setting: second compound 0.1 µM, first compound 0.1 µM.
Setting [8] is: second compound 0.1 µM, first compound 0.316 µM.
Where [9] appears, read: second compound 0.1 µM, first compound 1 µM.
The mark [10] stands for this setting: second compound 0.1 µM, first compound 3.16 µM.
The mark [11] stands for this setting: second compound 0.1 µM, first compound 10 µM.
The mark [12] stands for this setting: second compound 0.316 µM, first compound 0.0316 µM.
The mark [13] stands for this setting: second compound 0.316 µM, first compound 0.1 µM.
[14] abbreviates: second compound 0.316 µM, first compound 0.316 µM.
Setting [15] is: second compound 0.316 µM, first compound 1 µM.
Where [16] appears, read: second compound 0.316 µM, first compound 3.16 µM.
Setting [17] is: second compound 0.316 µM, first compound 10 µM.
Setting [18] is: second compound 1 µM, first compound 0.0316 µM.
Setting [19] is: second compound 1 µM, first compound 0.1 µM.
The mark [20] stands for this setting: second compound 1 µM, first compound 0.316 µM.
The mark [21] stands for this setting: second compound 1 µM, first compound 1 µM.
Where [22] appears, read: second compound 1 µM, first compound 3.16 µM.
Setting [23] is: second compound 1 µM, first compound 10 µM.
Where [24] appears, read: second compound 3.16 µM, first compound 0.0316 µM.
Setting [25] is: second compound 3.16 µM, first compound 0.1 µM.
Where [26] appears, read: second compound 3.16 µM, first compound 0.316 µM.
[27] abbreviates: second compound 3.16 µM, first compound 1 µM.
Where [28] appears, read: second compound 3.16 µM, first compound 3.16 µM.
[29] abbreviates: second compound 3.16 µM, first compound 10 µM.
The mark [30] stands for this setting: second compound 10 µM, first compound 0.0316 µM.
[31] abbreviates: second compound 10 µM, first compound 0.1 µM.
Where [32] appears, read: second compound 10 µM, first compound 0.316 µM.
The mark [33] stands for this setting: second compound 10 µM, first compound 1 µM.
Setting [34] is: second compound 10 µM, first compound 3.16 µM.
The mark [35] stands for this setting: second compound 10 µM, first compound 10 µM.

As a reminder, the IC50 is the midpoint of a concentration-inhibition curve. One may read the viability, T/C as the result in the treated group divided by that in the control group, in per cent.

Values joined by “and” are separate entries in the source; they are usually repeats but may differ in a detail not shown here. Equal values may be shown once. Bounds are passed on as bounds.
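Further: drug exposure lasted seven days after spheroids formed for three days.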
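Wherever viability, T/C is given: percent of DMSO vehicle control viability which is 100%.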

`CC1OCC2(CCN(c3cnc(Sc4ccnc(N)c4Cl)c(N)n3)CC2)C1N` (stereo not given) + CNCc1ccccc1-c1csc(C(C)Nc2nc(C)nc3cc(OC)c(OC)cc23)c1: the half-inhibitory concentration (IC50) is, setting by setting: under setting [1], 296 nM; under setting [2], 203 nM; under setting [3], 43.5 nM; under setting [4], less than 31.6 nM; under setting [5], less than 31.6 nM. Further, the viability, T/C was 77% under setting [6]; 61.6% under setting [7]; 50% under setting [8]; 37.5% under setting [9]; 34.6% under setting [10]; 26.7% under setting [11]. The viability, T/C under setting [12] was 77.4%; the viability, T/C under setting [13] is 56.2%; the viability, T/C under setting [14] is 44.7%; the viability, T/C under setting [15] was 37.4%; the viability, T/C under setting [16] is 31.8%; the viability, T/C under setting [17] was 24.8%. The viability, T/C is 52.5% under setting [18]; 43.2% under setting [19]; 37.8% under setting [20]; 29.3% under setting [21]; 26% under setting [22]; 22.2% under setting [23]. The viability, T/C is 0.1% under setting [24]; 0.09% under setting [25]; 0.07% under setting [26]; 0.06% under setting [27]; 0.05% under setting [28]; 0.33% under setting [29]. In addition, the viability, T/C by setting is: under setting [30], 0.09%; under setting [31], 0.19%; under setting [32], 0.08%; under setting [33], 0.09%; under setting [34], 0.09%; under setting [35], 0.15%.

For `CN(C)C/C=C/C(=O)Nc1cc2c(Nc3ccc(F)c(Cl)c3)ncnc2cc1O[C@H]1CCOC1` + COc1cc2nc(C)nc(NC(C)c3cc(N)cc(C(F)(F)F)c3)c2cc1OC1CCOC1, the IC50 under setting [1] was greater than 100 nM; the IC50 under setting [2] is greater than 100 nM; the IC50 under setting [3] was greater than 100 nM; the 50% inhibitory concentration (IC50) under setting [4] is 30.4 nM; the half-inhibitory concentration (IC50) under setting [5] stood at 1.18 nM. For the same molecule, the viability, T/C (second compound 0.1 µM, first compound 0.000316 µM) was 94%; the viability, T/C (second compound 0.1 µM, first compound 0.001 µM) is 91.5%; the viability, T/C (second compound 0.1 µM, first compound 0.00316 µM) was 84.8%; the viability, T/C (second compound 0.1 µM, first compound 0.01 µM) was 88.7%; the viability, T/C under setting [6] is 85.4%; the viability, T/C under setting [7] is 74.5%. For the same molecule, the viability, T/C (second compound 0.316 µM, first compound 0.000316 µM) is 87.5%; the viability, T/C (second compound 0.316 µM, first compound 0.001 µM) was 74.7%; the viability, T/C (second compound 0.316 µM, first compound 0.00316 µM) is 72.7%; the viability, T/C (second compound 0.316 µM, first compound 0.01 µM) was 73.5%; the viability, T/C under setting [12] is 66.1%; the viability, T/C under setting [13] is 58.1%. In addition, the viability, T/C reads like this: (second compound 1 µM, first compound 0.000316 µM) 87%; (second compound 1 µM, first compound 0.001 µM) 82.2%; (second compound 1 µM, first compound 0.00316 µM) 83.7%; (second compound 1 µM, first compound 0.01 µM) 86.8%; under setting [18], 84.9%; under setting [19], 75.2%. Also, the viability, T/C (second compound 3.16 µM, first compound 0.000316 µM) is 62.8%; the viability, T/C (second compound 3.16 µM, first compound 0.001 µM) was 46.8%; the viability, T/C (second compound 3.16 µM, first compound 0.00316 µM) is 57%; the viability, T/C (second compound 3.16 µM, first compound 0.01 µM) is 54.9%; the viability, T/C under setting [24] was 52.5%; the viability, T/C under setting [25] was 44.5%. In addition, the viability, T/C runs as follows: (second compound 10 µM, first compound 0.000316 µM) 50%; (second compound 10 µM, first compound 0.001 µM) 52.2%; (second compound 10 µM, first compound 0.00316 µM) 50.7%; (second compound 10 µM, first compound 0.01 µM) 45.5%; under setting [30], 45.6%; under setting [31], 47.8%.

`CC1OCC2(CCN(c3cnc(Sc4ccnc(N)c4Cl)c(N)n3)CC2)C1N` (stereo not given) + COc1cc2nc(C)nc(NC(C)c3cc(N)cc(C(F)(F)F)c3)c2cc1OC1CCOC1: the concentration for half-maximal inhibition (IC50) was 242 nM under setting [1]; 127 nM under setting [2]; 102 nM under setting [3]; 53 nM under setting [4]; less than 31.6 nM under setting [5]. The viability, T/C is 70.2% under setting [6]; 60.1% under setting [7]; 46.6% under setting [8]; 36.8% under setting [9]; 30.2% under setting [10]; 26.9% under setting [11]. For the same molecule, the viability, T/C is 69.2% under setting [12]; 53% under setting [13]; 39.9% under setting [14]; 33.1% under setting [15]; 29.2% under setting [16]; 26.1% under setting [17]. Moreover, the viability, T/C under setting [18] is 62.4%; the viability, T/C under setting [19] is 51%; the viability, T/C under setting [20] is 36.1%; the viability, T/C under setting [21] was 31.1%; the viability, T/C under setting [22] is 26.3%; the viability, T/C under setting [23] was 24.3%. The viability, T/C is, setting by setting: under setting [24], 56.1%; under setting [25], 42.4%; under setting [26], 33.5%; under setting [27], 27.5%; under setting [28], 23.8%; under setting [29], 21.7%. For the same molecule, the viability, T/C was 23.1% under setting [30]; 20.2% under setting [31]; 17.4% under setting [32]; 14.2% under setting [33]; 15.4% under setting [34]; 13.2% under setting [35].

In the case of `O=C(c1cc(Cc2n[nH]c(=O)c3ccccc23)ccc1F)N1CCN(C(=O)C2CC2)CC1`, the viability, T/C is 96.3% [middle of 5 runs] (compound 0.0316 µM) and 46% [middle of 5 runs] (compound 10 µM). Further, the IC50 (curve of compound) was 8.55 µM [middle of 5 runs].

As for `CCN1CCN(Cc2ccc(Nc3ncc(F)c(-c4cc(F)c5nc(C)n(C(C)C)c5c4)n3)nc2)CC1`, the viability, T/C is, setting by setting: (compound 0.00316 µM) 88.5% and 85.8% and 83.2%; (compound 0.01 µM) 72.1% and 73% and 63.1%; (compound 0.0316 µM) 57.3% and 49.2% and 53%; (compound 0.1 µM) 36.8% and 43.1% and 36.2%; (compound 0.316 µM) 28.3% and 34.9% and 27.1%; (compound 1 µM) 17.8% and 23.3% and 20.6%. For the same molecule, the half-inhibitory concentration (IC50) (curve of compound) is 46.4 nM and 47.4 nM and 32.1 nM.
